Assay results taken from US8835445B2, “Dihydrofolate reductase inhibitors” (Trius Therapeutics, Inc., priority 2010, dated 2014).
Converted amounts (≈) assume the structure as drawn. Where two headings read alike, the source gives them in different places.

Legend:
[1] = system: S. aureus; assay: Antibacterial activity (MIC), whole-cell bacterial growth inhibition; type: cell-based, Staphylococcus aureus; details: Staphylococcus aureus
Source text: Antibacterial activity as measured by the minimal inhibitory concentrations (MIC) and minimal bactericidal concentrations of compounds are well known (see., e.g., National Committee for Clinical Laboratory Standards 2000 Performance standards for antimicrobial disk susceptibility tests: approved standard, 7th ed. M2-A7, vol. 20, no. 1, Committee for Clinical Laboratory Standards, Wayne, Pa.) In vitro testing for antibacterial activity may be accomplished through use of a whole-cell bacterial growth inhibition assay. For example, an […] assay identifies a substance that inhibits bacterial growth. Microtiter plates are prepared with serial dilutions of the test compound, adding to the preparation a given amount of growth substrate, and providing a preparation of bacteria. Inhibition of bacterial growth is determined, for example, by observing changes in optical densities of the bacterial cultures. Inhibition of bacterial growth is determined, for example, by comparing (in the presence and absence of a test compound) the rate of growth or the absolute growth of bacterial cells. Inhibition includes a reduction of one of the above measurements by at least 20%.

[2] = target: human DHFR (Homo sapiens (Human), UniProt P00374); assay: DHFR enzymatic inhibition (Ki), human DHFR; type: biochemical
[3] = target: S. aurues DHFR (Staphylococcus aureus, UniProt P0A017); assay: biochemical; type: biochemical
[4] = S. aureus in 20% serum, read-out: MIC in μg/ml S. aureus in 20% serum
[5] = S. aureus, read-out: MIC in μg/ml S. aureus

human DHFR, sequence (P00374 whole entry): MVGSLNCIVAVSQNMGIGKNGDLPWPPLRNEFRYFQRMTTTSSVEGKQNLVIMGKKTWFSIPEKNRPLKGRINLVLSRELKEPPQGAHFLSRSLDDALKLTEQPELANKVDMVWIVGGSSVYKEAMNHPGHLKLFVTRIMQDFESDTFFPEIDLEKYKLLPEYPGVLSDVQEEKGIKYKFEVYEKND

SMILES | MIC [1, 4] | MIC [1, 5] | Ki [2] | Ki ([3]; S. aureus DHFR) | Ki [3]
COc1cc2nc(-c3nccs3)n(-c3cc4nc(N)nc(N)c4cc3C)c2cc1OC [Compound 24, 7-(5,6-dimethoxy-2-(thiazol-2-yl)-1H-benzo[d]-imidazol-1-yl)-6-methylquin-azoline-2,4-diamine] | ≤ 0.5 µg/mL | ≤ 0.5 µg/mL | 170 nM | 0.019 nM | 
COc1ccccc1-c1ccc2c(N)nc(N)nc2c1 [Compound 1, 7-(2-methoxyphenyl)quinazoline-2,4-diamine] | 4 µg/mL (≈ 15 µM) | 2 µg/mL (≈ 7.51 µM) | 1140 nM |  | 2.7 nM
CC(=O)c1cccc(-c2ccc3c(N)nc(N)nc3c2)c1 [Compound 6, 1-(3-(2,4-diaminoquinazolin-7-yl)-phenyl)ethanone] | 8 µg/mL (≈ 28.7 µM) | 4 µg/mL (≈ 14.4 µM) | 323 nM | 4.4 nM | 
CC(=O)c1cccc(-c2cc3nc(N)nc(N)c3cc2C)c1 [Compound 7, 1-(3-(2,4-diamino-6-methylquinazolin-7-yl)-phenyl)ethanone] | 1 µg/mL (≈ 3.42 µM) | 0.5 µg/mL (≈ 1.71 µM) | 26.3 nM | 0.48 nM | 
COc1cc(-c2cc3nc(N)nc(N)c3cc2C)cc(OC)c1OC [Compound 33, 6-methyl-7-(3,4,5-trimethoxyphenyl) quinazoline-2,4-diamine] | 1 µg/mL (≈ 2.94 µM) | ≤ 0.5 µg/mL | 47.1 nM | 0.91 nM | 
CCOc1ccc2ccccc2c1-c1cc2nc(N)nc(N)c2cc1C [Compound 31, 7-(2-ethoxynaphthalen-1-yl)-6-methylquinazoline-2,4-diamine] | 0.5 µg/mL (≈ 1.45 µM) | ≤ 0.125 µg/mL | 4.5 nM | 0.026 nM | 
CCOc1ccc(-c2cccc(NS(C)(=O)=O)c2)cc1-c1ccc2c(N)nc(N)nc2c1 [Compound 30, N-(3′-(2,4-diaminoquinoazlin-7-yl)-4′-ethoxybiphenyl-3-yl)methanesulfonamide] | 2 µg/mL (≈ 4.45 µM) | ≤ 0.5 µg/mL | 5.8 nM | 0.02 nM | 
COc1ncc(-c2cc3nc(N)nc(N)c3cc2C)c(OC)n1 [Compound 29, 7-(2,4-dimethoxypyrimidin-5-yl)-6-methylquinazo-line-2,4-diamine] | 0.5 µg/mL (≈ 1.6 µM) | 0.5 µg/mL (≈ 1.6 µM) | 54.7 nM | 0.4 nM | 
COc1ccc(OC)c(-c2ccc3c(N)nc(N)nc3c2)c1 [Compound 3, 7-(2,5-dimethoxyphenyl) quinazoline-2,4-diamine] | 8 µg/mL (≈ 27 µM) | 4 µg/mL (≈ 13.5 µM) | 345 nM |  | 4 nM
Nc1nc(N)c2ccc(-c3ccccc3N)cc2n1 [Compound 2, 7-(2-aminophenyl)quinazoline-2,4-diamine] | 8 µg/mL (≈ 31.8 µM) | 8 µg/mL (≈ 31.8 µM) | 3920 nM | 15.3 nM | 
COc1ccc(-c2cc3nc(N)nc(N)c3cc2Cn2ccnc2)cc1OC [Compound 10, 6-((1H-imidazol-1-yl)methyl)-7-(3,4-dimethoxyphenyl)quinazoline-2,4-diamine] | 2 µg/mL (≈ 5.31 µM) | 8 µg/mL (≈ 21.3 µM) | 53.6 nM | 0.51 nM | 
Cc1cc2c(N)nc(N)nc2cc1-c1ccc(N)cc1 [Compound 5, 7-(4-aminophenyl)-6-methylquinazoline-2,4-diamine] | 1 µg/mL (≈ 3.77 µM) | 1 µg/mL (≈ 3.77 µM) | 138 nM | 0.89 nM | 
CCOc1ccc(C(=O)N(CC)CC)cc1-c1cc2nc(N)nc(N)c2cc1C [Compound 40, 3-(2,4-diamino-6-methylquinazolin-7-yl)-4-ethoxy-N,N-diethylbenzamide] | 0.25 µg/mL (≈ 0.635 µM) | 0.25 µg/mL (≈ 0.635 µM) | 34 nM | 0.025 nM | 
Cc1cc2nc(C3CC3)n(-c3ccc4c(N)nc(N)nc4c3)c2cc1C [Compound 15, 7-(2-cyclopropyl-5,6-dimethyl-1H-benzo[d]-imidazol-1-yl)quinazoline-2,4-diamine] | 1 µg/mL (≈ 2.9 µM) | ≤ 0.5 µg/mL | 1160 nM | 0.14 nM | 
COc1ccc2nc(SCCC(C)(F)F)n(-c3ccc4c(N)nc(N)nc4c3)c2c1 [Compound 20, 7-(2-(3,3-difluorobutylthio)-6-methoxy-1H-benzo-[d]imidazol-1-yl)quinazoline-2,4-diamine] | 4 µg/mL (≈ 9.29 µM) | 0.5 µg/mL (≈ 1.16 µM) | 586 nM | 0.12 nM | 
COc1ccc2nc(-c3ccco3)n(-c3ccc4c(N)nc(N)nc4c3)c2n1 [Compound 37] | 0.5 µg/mL (≈ 1.34 µM) | 0.25 µg/mL (≈ 0.67 µM) | 797 nM | 0.039 nM | 
Cc1cc2c(N)nc(N)nc2cc1-c1cnc2[nH]ccc2c1 [Compound 27, 6-methyl-7-(1H-pyrrolo[2,3-b]pyridin-5-yl)quin-azoline-2,4-diamine] | 4 µg/mL (≈ 13.8 µM) | 4 µg/mL (≈ 13.8 µM) | 235 nM | 2.6 nM | 

SMILES | MIC [1, 4] | MIC [1, 5] | Ki [2] | Ki ([3]; S. aureus DHFR) | Ki [3]
COc1ccc(OC)c(-c2cc3nc(N)nc(N)c3cc2C)c1 [Compound 8, 7-(2,5-dimethoxyphenyl)-6-methylquin-azoline-2,4-diamine] | 1 µg/mL (≈ 3.22 µM) | 1 µg/mL (≈ 3.22 µM) | 27.5 nM |  | 0.66 nM
Cc1cc2c(N)nc(N)nc2cc1-c1cccc(C#N)c1 [Compound 11, 3-(2,4-diamino-6-methylquinazolin-7-yl)benzonitrile] | 2 µg/mL (≈ 7.26 µM) | 1 µg/mL (≈ 3.63 µM) | 55 nM | 1.2 nM | 
Cc1cc2nc(-c3nccs3)n(-c3ccc4c(N)nc(N)nc4c3)c2cc1C [Compound 22, 7-[5,6-dimethyl-2-(thiazol-2-yl)-1H-benzo[d]-imidazol-1-yl]quinazoline-2,4-diamine] | ≤ 0.125 µg/mL | ≤ 0.125 µg/mL | 93.5 nM | 0.002 nM | 
Cc1cc2nc(N3CCOCC3)n(-c3ccc4c(N)nc(N)nc4c3)c2cc1C [Compound 19, 7-(5,6-dimethyl-2-morpholino-1H-benzo[d]-imidazol-1-yl)quinazoline-2,4-diamine] | 4 µg/mL (≈ 10.3 µM) | 1 µg/mL (≈ 2.57 µM) | 1090 nM | 0.6 nM | 
Cc1c(C(=O)OC(C)(C)C)nc(-c2cccs2)n1-c1ccc2c(N)nc(N)nc2c1 [Compound 39, tert-butyl 1-(2,4-diaminoquinazolin-7-yl)-5-methyl-2-thiophen-2-yl)-1H-imidazole-4-carboxylate] | 2 µg/mL (≈ 4.73 µM) | 1 µg/mL (≈ 2.37 µM) |  |  | 
Cc1cc2nc(-c3nccs3)n(-c3cc4nc(N)nc(N)c4cc3C)c2cc1C [Compound 26, 7-(5,6-dimethyl-2-(thiazol-2-yl)-1H-benzo[d]-imidazol-1-yl)-6-methylquin-azoline-2,4-diamine] | ≤ 0.125 µg/mL | ≤ 0.125 µg/mL | 2.9 nM |  | 0.03 nM
COc1cc2nc(-c3nccs3)n(-c3ccc4c(N)nc(N)nc4c3)c2cc1OC [Compound 35] | 0.25 µg/mL (≈ 0.596 µM) | 0.25 µg/mL (≈ 0.596 µM) | 854 nM | 0.16 nM | 
COc1cc(-c2cc3nc(N)nc(N)c3cc2C)c(Cl)cn1 [Compound 28, 7-(5-chloro-2-methoxypyridin-4-yl)-6-methylquin-azoline-2,4-diamine] | 1 µg/mL (≈ 3.17 µM) | 0.5 µg/mL (≈ 1.58 µM) | 56 nM | 0.72 nM | 
Cc1cc2c(N)nc(N)nc2cc1-c1c[nH]c2ccccc12 [Compound 41, 7-(1H-indol-3-yl)-6-methylquinazoline-2,4-diamine] | 0.5 µg/mL (≈ 1.73 µM) | 0.25 µg/mL (≈ 0.864 µM) | 50.5 nM | 0.11 nM | 
Cc1cc2nc(-c3ccsc3)n(-c3ccc4c(N)nc(N)nc4c3)c2cc1C [Compound 21, 7-(5,6-dimethyl-2-(thiophen-3-yl)-1H-benzo[d]-imidazol-1-yl)quinazoline-2,4-diamine] | 0.25 µg/mL (≈ 0.647 µM) | ≤ 0.125 µg/mL | 663 nM | 0.012 nM | 
COCCn1c(-c2ccc3c(N)nc(N)nc3c2)nc2cc(C)c(C)cc21 [Compound 14, 7-(1-(2-methoxyethyl)-5,6-dimethyl-1H-benzo[d]-imidazol-2-yl)quinazoline-2,4-diamine] | 4 µg/mL (≈ 11 µM) | 4 µg/mL (≈ 11 µM) | 263 nM | 1.6 nM | 
Cc1cc2nc(-c3cccs3)n(-c3ccc4c(N)nc(N)nc4c3)c2cc1C [Compound 18, 7-(5,6-dimethyl-2-(thiophen-2-yl)-1H-benzo[d]-imidazol-1-yl)quinazoline-2,4-diamine] | 0.5 µg/mL (≈ 1.29 µM) | ≤ 0.125 µg/mL | 1030 nM | 0.005 nM | 
Cc1cc2c(N)nc(N)nc2cc1-c1cc(N)cc(C#N)c1 [Compound 12, 3-amino-5-(2,4-diamino-6-methylquin-azolin-7-yl)benzonitrile] | 1 µg/mL (≈ 3.44 µM) | 1 µg/mL (≈ 3.44 µM) | 44 nM | 0.65 nM | 
Cc1cc2c(N)nc(N)nc2cc1-c1cccc(CC#N)c1 [Compound 13, 2-(3-(2,4-diamino-6-methylquinazolin-7-yl)-phenyl)acetonitrile] | 2 µg/mL (≈ 6.91 µM) | 0.5 µg/mL (≈ 1.73 µM) | 44 nM | 0.5 nM | 
Cc1cc2nc(-c3nccs3)n(-c3cc4nc(N)nc(N)c4cc3Cl)c2cc1C [Compound 25, 6-chloro-7-(5,6-dimethyl-2-(thiazol-2-yl)-1H-benzo[d]imidazol-1-yl)quinazoline-2,4-diamine] | 1 µg/mL (≈ 2.37 µM) | ≤ 0.125 µg/mL | 7.6 nM | 0.011 nM | 
COC(=O)c1ccc2c(c1)nc(-c1nccs1)n2-c1ccc2c(N)nc(N)nc2c1 [Compound 32, methyl 1-(2,4-diaminoquinazolin-7-yl)-2-(thiazol-2-yl)-1H-benzo[d]imidazole-5-carboxylate] | 2 µg/mL (≈ 4.79 µM) | 0.25 µg/mL (≈ 0.599 µM) | 53.1 nM | 0.021 nM | 
